{
  "source": "patent US6417180B1",
  "about": "“Zinc finger-reactive antimicrobial compounds” (priority 1998, dated 2002)",
  "key": {"B. subtilis pol III [1]": {"target": "T1, B. subtilis pol III (Bacillus subtilis, UniProt P13267)", "T1 construct": "the so-called wild-type pol III, was identical to the native enzyme found in B. subtilis; made in house; host or cells: E. coli AR120, plasmid pKC30/polC", "assay": "65Zn release from labeled pol III by MMTS (Sephadex G-25 separation)", "assay_type": "biochemical", "settings": "60 minutes, 0° C.", "procedure": "Pol III was labeled by growing bacteria transformed with the above-described pol III expression plasmids in the presence of ^65Zn. LB expression medium was first depleted of divalent trace metals by mixing the medium with 0.3 volume of Chelex-Na (Bio-Rad) for 24 hours at 0° C. The depleted medium was then supplemented with 0.1 mM MgCl2 to support a level of E. coli growth compatible with pol III expression. E. coli AR120 transformed with the pKC30/polC vector was grown at 30° C. in this magnesium-supplemented medium. When the culture reached an absorbance of 0.5 ([…], 1 cm path length), 10 ml of the culture was added to one liter of the zinc-depleted, magnesium-supplemented medium, which further included [^65Zn]Cl2 (New England Nuclear; specific activity of 2.7 mCi/μmole) to a radioactivity level of 1.1 μCi/ml medium. Incubation was continued until the culture reached an absorbance of 0.75. […]\nTo remove non-specifically bound ^65Zn and exogenous thiols, the pol III was dialyzed as described in Example 1 above, and the labeled protein was further dialyzed with HNE buffer (10 mM HEPES [pH 7.6], 100 mM NaCl, and 0.1 mM EDTA) to remove exogenous thiols. […] The fraction eluted with each step was analyzed by liquid scintillation counting to determine the amount of protein-bound ^65Zn (void volume) and the amount of free ^65Zn (included volume)."}, "B. subtilis pol III [2]": {"target": "T1, B. subtilis pol III", "assay": "Polymerase activity of pol III after treatment with zinc-removing compound", "assay_type": "biochemical", "settings": "0.2 mM MMTS, one hour", "procedure": "(§1) Polymerase activity was determined as described in Barnes et al., Meth. Enzymol., 262:35-42, 1995, using activated calf thymus DNA (Worthington) as template and primer and [^3H]dTTP as the substrate. One unit of polymerase activity was defined as the activity which catalyzes the incorporation of one nanomole of [^3H]dTMP in 10 minutes at 30° C. For determination of the KM of the polymerase for DNA, the concentration of activated calf thymus DNA was varied during assay from 0-0.8 mg/ml. For determination of the KM for dGTP, incorporation of [^3H] dTMP was followed as a function of dGTP concentration (0-0.5 mM), and the values for incorporation were corrected for dGTP-independent, background incorporation.\n(§2) 0.2 nanomoles of pol III was mixed in 0.1 ml of HNE buffer (10 mM HEPES, 100 mM NaCl, and 10% glycerol [pH 7.6]) containing 0.3 mM Compound 20, and the mixture was incubated at 25° C. for one hour. The pol III was removed from Compound 20 by passage through a Sephadex G-25 spin column, and the enzyme assayed for polymerase activity and for its content of radioactive zinc (see procedures described above).\nEjection of Zinc by Treatment of Coordinating Thiolates with MMTS. The compound MMTS is described in Example 2 above. […]"}, "B. subtilis pol III [3]": {"target": "T1, B. subtilis pol III", "assay": "Radioactive zinc content of 65Zn-labeled pol III after treatment with zinc-removing compound", "assay_type": "biochemical", "settings": "0.2 mM MMTS, one hour", "procedure": "as §2\nEjection of Zinc by Treatment of Coordinating Thiolates with MMTS. The compound MMTS is described in Example 2 above. 0.2 nanomoles of ^65Zn-labeled B. subtilis pol III was incubated with HNE buffer with or without 0.2 mM MMTS for one hour, and the samples assayed as described for the pol III treatment with Compound 20."}, "B. subtilis pol III [4]": {"target": "T1, B. subtilis pol III", "assay": "Reconstitution of zinc-deficient inactive polymerase with ZnCl2/DTT", "assay_type": "biochemical", "settings": "pol III inactivated by MMTS; 0.01 mM ZnCl2 and 0.01 mM DTT, 25° C., 12 hours", "procedure": "At 30 minute intervals, samples were removed and assayed for pol activity."}, "[5]": {"target": "T2, Wildtype B. subtilis pol III (Bacillus subtilis, UniProt P13267)", "T2 construct": "made in house; host or cells: E. coli SG101, plasmid pSGA04", "assay": "TMAU sensitivity of polymerase activity, wild-type enzyme", "assay_type": "biochemical", "procedure": "as §1\nTagged wild-type and mutant forms of pol III were obtained at greater than 95% homogeneity using the procedure of Example 1 above. The proteins were then subjected to EDTA-based dialysis, and analyzed for zinc content as described in Example 1.\n(§3) Each of the five purified mutant enzymes of Table I was analyzed directly, in its native, undialyzed form, to assess the impact of the respective mutation on (1) exonuclease and polymerase activity; (2) affinity for exonuclease and polymerase substrates; and (3) sensitivity of the polymerase activity to TMAU, a dGTP analog which inhibits the pol III of Gram-positive eubacteria (Wright et al., Pharmac. Therap., 47:447-497, 1990)."}, "[6]": {"target": "T3, H909A B. subtilis pol III (Bacillus subtilis, UniProt P13267, H909A)", "T3 construct": "The H909A enzyme, although expressed as a full-length protein, was not readily produced in an amount sufficient for metal analysis; made in house; host or cells: E. coli SG101, plasmid pSGA04", "T3 sequence (P13267 7-1437 H909A)": "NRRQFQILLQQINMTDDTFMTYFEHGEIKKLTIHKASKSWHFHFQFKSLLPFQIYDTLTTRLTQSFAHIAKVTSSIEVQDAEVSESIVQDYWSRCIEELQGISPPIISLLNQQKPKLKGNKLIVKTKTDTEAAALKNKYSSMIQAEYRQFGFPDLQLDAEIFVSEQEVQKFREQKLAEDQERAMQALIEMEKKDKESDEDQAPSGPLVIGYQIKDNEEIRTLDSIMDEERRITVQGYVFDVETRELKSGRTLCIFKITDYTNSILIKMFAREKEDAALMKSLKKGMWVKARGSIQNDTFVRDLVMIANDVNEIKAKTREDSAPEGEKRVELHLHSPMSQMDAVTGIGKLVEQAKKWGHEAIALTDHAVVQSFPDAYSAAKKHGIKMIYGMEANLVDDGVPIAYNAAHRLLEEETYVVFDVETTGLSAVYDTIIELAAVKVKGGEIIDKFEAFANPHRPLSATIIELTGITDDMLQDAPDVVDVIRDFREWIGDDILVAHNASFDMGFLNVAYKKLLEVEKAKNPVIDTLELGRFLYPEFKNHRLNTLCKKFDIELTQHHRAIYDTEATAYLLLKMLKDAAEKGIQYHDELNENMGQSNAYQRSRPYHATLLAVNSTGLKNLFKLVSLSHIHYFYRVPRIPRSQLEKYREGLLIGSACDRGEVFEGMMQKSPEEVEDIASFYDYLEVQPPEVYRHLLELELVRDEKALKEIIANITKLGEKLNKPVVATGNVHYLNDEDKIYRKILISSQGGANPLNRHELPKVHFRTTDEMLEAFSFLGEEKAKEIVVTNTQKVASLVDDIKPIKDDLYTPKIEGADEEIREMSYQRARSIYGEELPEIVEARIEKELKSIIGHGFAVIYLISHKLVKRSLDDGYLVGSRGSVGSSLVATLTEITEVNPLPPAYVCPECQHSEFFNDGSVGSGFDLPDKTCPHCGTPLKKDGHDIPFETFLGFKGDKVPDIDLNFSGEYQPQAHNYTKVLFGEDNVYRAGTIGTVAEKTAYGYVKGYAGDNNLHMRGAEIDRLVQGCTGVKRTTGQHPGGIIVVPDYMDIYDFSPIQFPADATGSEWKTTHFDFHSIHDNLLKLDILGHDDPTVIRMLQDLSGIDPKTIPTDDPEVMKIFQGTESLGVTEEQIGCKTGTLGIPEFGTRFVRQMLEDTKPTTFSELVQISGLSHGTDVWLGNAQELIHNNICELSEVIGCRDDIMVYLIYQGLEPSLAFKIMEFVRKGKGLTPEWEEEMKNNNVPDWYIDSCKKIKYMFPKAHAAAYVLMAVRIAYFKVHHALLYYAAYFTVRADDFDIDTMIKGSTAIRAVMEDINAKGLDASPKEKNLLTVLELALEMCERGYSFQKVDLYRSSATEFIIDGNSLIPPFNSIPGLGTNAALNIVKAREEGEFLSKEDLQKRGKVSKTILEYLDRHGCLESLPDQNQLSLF", "assay": "TMAU sensitivity of polymerase activity, H909A mutant", "assay_type": "biochemical", "settings": "H909A enzyme", "procedure": "as §1\n(§4) An oligonucleotide-based system (Altered Sites, Promega) was used to introduce the mutations into the segment of polC encoding the putative zinc finger. […]\nas §3"}, "[7]": {"target": "T4, C915A B. subtilis pol III (Bacillus subtilis, UniProt P13267, C915A)", "T4 construct": "Each of the three full-length mutants (C912A, C915A, and C940A); made in house; host or cells: E. coli SG101, plasmid pSGA04", "T4 sequence (P13267 7-1437 C915A)": "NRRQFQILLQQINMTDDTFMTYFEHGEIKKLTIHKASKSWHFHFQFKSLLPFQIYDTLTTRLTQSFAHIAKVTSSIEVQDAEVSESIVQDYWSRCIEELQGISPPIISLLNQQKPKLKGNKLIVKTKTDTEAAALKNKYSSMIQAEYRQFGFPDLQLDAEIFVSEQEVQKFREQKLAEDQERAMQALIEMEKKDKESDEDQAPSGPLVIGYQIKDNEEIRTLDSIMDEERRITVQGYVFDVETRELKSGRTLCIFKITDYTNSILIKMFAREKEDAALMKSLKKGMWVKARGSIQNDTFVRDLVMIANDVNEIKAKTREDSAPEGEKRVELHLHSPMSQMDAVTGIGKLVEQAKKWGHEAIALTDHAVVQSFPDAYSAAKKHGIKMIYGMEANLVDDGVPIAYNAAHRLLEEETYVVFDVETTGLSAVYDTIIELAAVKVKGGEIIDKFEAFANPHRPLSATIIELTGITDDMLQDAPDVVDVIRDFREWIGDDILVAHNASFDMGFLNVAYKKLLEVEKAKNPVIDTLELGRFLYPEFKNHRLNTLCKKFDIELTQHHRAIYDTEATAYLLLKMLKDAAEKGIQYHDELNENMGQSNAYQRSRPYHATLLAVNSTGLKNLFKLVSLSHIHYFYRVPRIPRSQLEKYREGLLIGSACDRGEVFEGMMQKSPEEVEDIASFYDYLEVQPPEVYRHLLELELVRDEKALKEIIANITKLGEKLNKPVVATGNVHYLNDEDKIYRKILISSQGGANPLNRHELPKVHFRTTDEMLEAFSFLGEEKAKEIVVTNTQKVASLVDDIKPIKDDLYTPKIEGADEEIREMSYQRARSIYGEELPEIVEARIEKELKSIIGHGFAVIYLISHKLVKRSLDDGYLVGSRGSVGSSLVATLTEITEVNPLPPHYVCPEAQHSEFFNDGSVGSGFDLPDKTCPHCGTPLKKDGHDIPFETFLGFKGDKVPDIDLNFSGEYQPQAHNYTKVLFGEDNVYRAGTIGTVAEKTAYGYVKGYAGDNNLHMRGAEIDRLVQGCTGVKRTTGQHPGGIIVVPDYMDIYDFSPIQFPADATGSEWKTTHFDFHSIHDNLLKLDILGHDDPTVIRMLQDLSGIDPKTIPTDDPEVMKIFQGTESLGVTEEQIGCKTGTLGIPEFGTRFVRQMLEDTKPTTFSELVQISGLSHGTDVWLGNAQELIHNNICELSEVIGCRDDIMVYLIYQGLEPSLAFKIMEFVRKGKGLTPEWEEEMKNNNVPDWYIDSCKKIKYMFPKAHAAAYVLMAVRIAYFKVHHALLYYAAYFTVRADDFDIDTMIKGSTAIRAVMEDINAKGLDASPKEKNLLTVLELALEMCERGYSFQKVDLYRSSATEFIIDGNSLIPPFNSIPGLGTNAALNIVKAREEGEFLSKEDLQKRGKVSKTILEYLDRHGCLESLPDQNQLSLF", "assay": "TMAU sensitivity of polymerase activity, C915A mutant", "assay_type": "biochemical", "settings": "C915A enzyme", "procedure": "as §1, §4, §3"}, "[8]": {"target": "T5, C940A B. subtilis pol III (Bacillus subtilis, UniProt P13267, C940A)", "T5 construct": "Each of the three full-length mutants (C912A, C915A, and C940A); made in house; host or cells: E. coli SG101, plasmid pSGA04", "T5 sequence (P13267 7-1437 C940A)": "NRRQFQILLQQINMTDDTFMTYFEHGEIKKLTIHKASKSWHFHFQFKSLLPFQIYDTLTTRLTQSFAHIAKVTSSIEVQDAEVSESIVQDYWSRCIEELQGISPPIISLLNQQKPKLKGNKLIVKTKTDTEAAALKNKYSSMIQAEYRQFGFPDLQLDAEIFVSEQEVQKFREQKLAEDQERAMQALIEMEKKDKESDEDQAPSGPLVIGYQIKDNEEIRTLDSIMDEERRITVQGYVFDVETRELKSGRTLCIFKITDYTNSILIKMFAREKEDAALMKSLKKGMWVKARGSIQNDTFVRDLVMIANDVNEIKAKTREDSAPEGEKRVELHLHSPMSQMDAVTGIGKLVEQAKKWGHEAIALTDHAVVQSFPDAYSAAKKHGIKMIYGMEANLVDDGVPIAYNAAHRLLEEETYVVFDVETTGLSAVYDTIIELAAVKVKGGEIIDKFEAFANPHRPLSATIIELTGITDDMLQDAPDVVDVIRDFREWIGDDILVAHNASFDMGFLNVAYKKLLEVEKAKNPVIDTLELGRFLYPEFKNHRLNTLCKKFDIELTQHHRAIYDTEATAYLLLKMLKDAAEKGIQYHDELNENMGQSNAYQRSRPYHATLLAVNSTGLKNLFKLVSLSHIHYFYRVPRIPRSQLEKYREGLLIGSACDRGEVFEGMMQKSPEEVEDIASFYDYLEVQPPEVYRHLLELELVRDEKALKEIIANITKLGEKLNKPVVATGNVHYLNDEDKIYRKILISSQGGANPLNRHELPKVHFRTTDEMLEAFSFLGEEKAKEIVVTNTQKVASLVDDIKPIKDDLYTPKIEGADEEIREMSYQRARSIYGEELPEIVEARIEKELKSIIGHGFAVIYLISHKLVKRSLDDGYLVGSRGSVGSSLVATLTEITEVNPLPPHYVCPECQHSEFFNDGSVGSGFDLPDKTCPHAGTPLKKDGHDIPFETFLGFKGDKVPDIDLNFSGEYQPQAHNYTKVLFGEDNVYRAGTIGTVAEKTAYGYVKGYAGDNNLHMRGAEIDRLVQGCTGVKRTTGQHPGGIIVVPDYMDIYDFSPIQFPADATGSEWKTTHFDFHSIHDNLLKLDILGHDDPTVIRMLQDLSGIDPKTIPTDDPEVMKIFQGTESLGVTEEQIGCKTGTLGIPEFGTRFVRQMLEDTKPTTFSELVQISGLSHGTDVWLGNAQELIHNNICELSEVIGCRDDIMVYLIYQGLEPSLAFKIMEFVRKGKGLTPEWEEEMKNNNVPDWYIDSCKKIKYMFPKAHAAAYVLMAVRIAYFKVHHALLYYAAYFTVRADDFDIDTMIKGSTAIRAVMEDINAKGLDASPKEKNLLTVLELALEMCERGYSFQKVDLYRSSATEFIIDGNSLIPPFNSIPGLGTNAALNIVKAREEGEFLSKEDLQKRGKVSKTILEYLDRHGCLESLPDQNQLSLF", "assay": "TMAU sensitivity of polymerase activity, C940A mutant", "assay_type": "biochemical", "settings": "C940A enzyme", "procedure": "as §1, §4, §3"}, "[9]": {"test_system": "methicillin-sensitive S. aureus (ATCC No. 29213)", "assay": "Thigh infection in neutropenic ICR/Swiss mice (Example 10)", "assay_type": "in vivo", "settings": "40 mg/kg i.v. at 2, 6, 12, 18 hours post-infection; 24 hours after infection; 100× diluted homogenate; saline controls about 500", "procedure": "Before infection with test bacteria, six six-week old pathogen-free ICR/Swiss mice are rendered neutropenic (less than 100 neutrophils per milliliter of blood) by intraperitoneal injection of two doses of cyclophosphamide. The first injection is made at 150 mg/kg four days before bacterial infection, and the second injection is made at 100 mg/kg one day before bacterial infection. Neutropenia is induced so that a wide variety of bacteria can be used for the subsequent infection.\nBacterial infection for each mouse is performed by inoculating 10^6 cfu of methicillin-sensitive S. aureus (ATCC No. 29213) in 100 μl of media into the right thigh muscle. The compound and control mixtures are administered intravenously into the tail vein of the animal at 2, 6, 12, and 18 hours post-infection. Two mice received 50 μl of a negative control mixture of physiological saline at each time point. Another pair of mice received a positive control mixture of 40 mg/kg body weight vancomycin in saline at each time point. The last two mice received 40 mg/kg body weight of the candidate compound in saline at each time point.\nAt 24 hours after infection, all mice are sacrificed, and the right thigh muscle of each mice removed. […] After incubating at 37° C. for 24 hours, the number of colonies on each plate is counted. […]"}, "S. aureus": {"test_system": "S. aureus", "settings": "40 mg/kg intravenously every four hours; cited from earlier work"}},
  "data": [
    {"molecule": "CSS(C)(=O)=O", "note": "[MMTS, methylmethanethio-sulfonate]", "values": [
      {"measurement": "65Zn label released from pol III", "setting": "B. subtilis pol III [1]; 0.01 mM MMTS", "result": "about 50%"},
      {"measurement": "65Zn label released from pol III", "setting": "B. subtilis pol III [1]; three higher concentrations (0.03, 0.10, 0.3 mM MMTS)", "result": "greater than 95%"},
      {"measurement": "pol III activity relative to control", "setting": "B. subtilis pol III [2]", "result": "less than 1 % of the control"},
      {"measurement": "radioactive zinc content relative to control", "setting": "B. subtilis pol III [3]", "result": "less than 2 % of the control"},
      {"measurement": "reactivation of pol activity after treatment", "setting": "B. subtilis pol III [4]", "result": "No reactivation"}
    ]},
    {"molecule": "O=c1cc(Nc2ccc3c(c2)CCC3)[nH]c(=O)[nH]1", "note": "[TMAU]", "values": [
      {"measurement": "IC50", "setting": "[5]", "result": 4.1, "unit": "µM"},
      {"measurement": "IC50", "setting": "[6]", "result": 4, "unit": "µM"},
      {"measurement": "IC50", "setting": "[7]", "result": 2.9, "unit": "µM"},
      {"measurement": "IC50", "setting": "[8]", "result": 4, "unit": "µM"}
    ]},
    {"molecule": "CN[C@H](CC(C)C)C(=O)N[C@H]1C(=O)N[C@@H](CC(N)=O)C(=O)N[C@H]2C(=O)N[C@H]3C(=O)N[C@H](C(=O)N[C@H](C(=O)O)c4cc(O)cc(O)c4-c4cc3ccc4O)[C@H](O)c3ccc(c(Cl)c3)Oc3cc2cc(c3O[C@@H]2O[C@H](CO)[C@@H](O)[C@H](O)[C@H]2O[C@H]2C[C@](C)(N)[C@H](O)[C@H](C)O2)Oc2ccc(cc2Cl)[C@H]1O", "note": "[vancomycin]", "values": [
      {"measurement": "colonies from thigh muscle homogenate", "setting": "[9]", "result": "about 40 colonies on each plate"},
      {"measurement": "reduction in S. aureus proliferation compared with control thighs", "setting": "S. aureus", "result": "two to four"}
    ]}
  ]
}
